Test results: patent US20230123334A1, “AMINO LIPID COMPOUND, PREPARATION METHOD THEREFOR, AND APPLICATION THEREOF” (SHENZHEN SHENXIN BIOTECHNOLOGY CO., LTD., priority 2020, published 2023)

Test system: HEK293 cells
Assay: Preliminary screening as mRNA vectors, EGFP mRNA transfection of HEK293 cells
Assay type: cell-based
Details: EGFP mRNA 50 ng per well, 96-well plates; percentage of GFP fluorescent cells relative to total number of cells (Hoechst)
In short: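 Each well of HEK293 cells received 50 ng of EGFP mRNA. Efficiency was expressed as percent GFP-expressing cells over Hoechst-defined total cell number.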

## CCCCCCCCCCCCN(CCCCCCCCCCCC)c1nc(NCCN(CC)CC)nc(SCCCCCCCCC)n1 [D7S9^2N12]
  Absolute mRNA transfection efficiency in HEK293 cells: 0.2%

## CCCCCCCCCCSc1nc(NCC2CCN(C)CC2)nc(SCCCCCCC)n1 [Compound D10S7S10]
  Absolute mRNA transfection efficiency in HEK293 cells: 55.8%

## CCCCCCCCCCCCCCCSc1nc(NCC2CCN(C)CC2)nc(N(CCCCCCCCCCCC)CCCCCCCCCCCC)n1 [D10S15^2N12]
  Absolute mRNA transfection efficiency in HEK293 cells: 14.3%

## CCCCCCCCCCCSc1nc(NCCCCCCCC)nc(NCCN(CC)CC)n1 [Compound D7S11N8]
  Absolute mRNA transfection efficiency in HEK293 cells: 13.4%

## CCCCCCCCCCCCCCCCNc1nc(NCCN(CC)CC)nc(SCCCCCC)n1 [Compound D7S6N16]
  Absolute mRNA transfection efficiency in HEK293 cells: 3.0%

## CCCCCCCCCCCCCCCCNc1nc(NCCN2CCCCC2)nc(SCCCCCCCCCCC)n1 [Compound D4S11N16]
  Absolute mRNA transfection efficiency in HEK293 cells: 12.3%

## CCCCCCCCCCCCCCCCCCNc1nc(NCCN2CCCCC2)nc(SCCCCCCCCCCCCCCCCCC)n1 [Compound D4S18N18]
  Absolute mRNA transfection efficiency in HEK293 cells: 0.2%

## CCCCCCCCCCCCCCCCCCSc1nc(NCCCCCCCCC)nc(NCCN2CCOCC2)n1 [Compound D2S18N9]
  Absolute mRNA transfection efficiency in HEK293 cells: 0.4%

## CCCCCCCCCSc1nc(NCCCCCCC)nc(NCCN2CCCCC2)n1 [Compound D4S9N7]
  Absolute mRNA transfection efficiency in HEK293 cells: 3.0%

## CCCCCCCCCCCCCCCCCCSc1nc(NCCN2CCCCC2)nc(SCCCCCCC)n1 [Compound D4S7S18]
  Absolute mRNA transfection efficiency in HEK293 cells: 4.5%

## CCCCCCCCCCCCCCCCCCNc1nc(NCCN2CCCCC2)nc(SCCCCCCC)n1 [Compound D4S7N18]
  Absolute mRNA transfection efficiency in HEK293 cells: 7.9%

## CCCCCCCCCCCCCCCCNc1nc(NCCN2CCCC2)nc(SCCCCCCCCCCCCCCCC)n1 [Compound D3S16N16]
  Absolute mRNA transfection efficiency in HEK293 cells: 1.1%

## CCCCCCCCCCCCCNc1nc(NCCN2CCCCC2)nc(SCCCCCC)n1 [Compound D4S6N13]
  Absolute mRNA transfection efficiency in HEK293 cells: 2.1%

## CCCCCCCCCCCCCCCCNc1nc(NCCN(CC)CC)nc(SCCCCCCCCCCCCCC)n1 [Compound D7S14N16]
  Absolute mRNA transfection efficiency in HEK293 cells: 2.7%

## CCCCCCCCCCCCCCCSc1nc(NCCN(C)C)nc(N(CCCCCCCCCCCC)CCCCCCCCCCCC)n1 [D1S15^2N12]
  Absolute mRNA transfection efficiency in HEK293 cells: 0.3%

## CCCCCCCCCCCNc1nc(NCCN2CCCC2)nc(SCCCCCCC)n1 [Compound D3S7N11]
  Absolute mRNA transfection efficiency in HEK293 cells: 9.6%

## CCCCCCCCCCCCCCSc1nc(NCCCCCCCCCCC)nc(NCCCN(C)C)n1 [Compound D6S14N11]
  Absolute mRNA transfection efficiency in HEK293 cells: 20.1%

## CCCCCCCSc1nc(NCCCCCC)nc(NCCCN(C)C)n1 [Compound D6S7N6]
  Absolute mRNA transfection efficiency in HEK293 cells: 8.8%

## CCCCCCCCCCCCCCCCSc1nc(NCCCCCCC)nc(NCCCN2CCN(C)CC2)n1 [Compound D9S16N7]
  Absolute mRNA transfection efficiency in HEK293 cells: 97.9%

## CCCCCCCCCCCCCCCCCCNc1nc(NCCN2CCN(C)CC2)nc(SCCCCCCCCCCCCCCC)n1 [Compound D5S15N18]
  Absolute mRNA transfection efficiency in HEK293 cells: 1.7%

## CCCCCCCCCCCCCCCCSc1nc(NCCCCCCCCCCCCCCC)nc(NCCN(CC)CC)n1 [Compound D7S16N15]
  Absolute mRNA transfection efficiency in HEK293 cells: 1.1%

## CCCCCCCCCNc1nc(NCCN2CCN(C)CC2)nc(SCCCCCCCCC)n1 [Compound D5S9N9]
  Absolute mRNA transfection efficiency in HEK293 cells: 38.2%

## CCCCCCCCCCCCCCCCNc1nc(NCCN2CCOCC2)nc(SCCCCCCCCCCCCCCCC)n1 [Compound D2S16N16]
  Absolute mRNA transfection efficiency in HEK293 cells: 0.0%

## CCCCCCCCCCCCCCCCCCNc1nc(NCCN(CC)CC)nc(SCCCCCCC)n1 [Compound D7S7N18]
  Absolute mRNA transfection efficiency in HEK293 cells: 16.7%

## CCCCCCCCCCCSc1nc(NCCN(CC)CC)nc(SCCCCCC)n1 [Compound D7S6S11]
  Absolute mRNA transfection efficiency in HEK293 cells: 0.5%

## CCCCCCCCSc1nc(NCCCN2CCOCC2)nc(SCCCCCCC)n1 [Compound D8S7S8]
  Absolute mRNA transfection efficiency in HEK293 cells: 5.0%

## CCCCCCCSc1nc(NCCN2CCOCC2)nc(SCCCCCCC)n1 [Compound D2S7S7]
  Absolute mRNA transfection efficiency in HEK293 cells: 4.9%

## CCCCCCCCCCCCCCCCCCNc1nc(NCCN(C)C)nc(SCCCCCCCCCCCCCC)n1 [Compound D1S14N18]
  Absolute mRNA transfection efficiency in HEK293 cells: 1.8%

## CCCCCCCCCCCCSc1nc(NCCCCCCC)nc(NCCCN2CCOCC2)n1 [Compound D8S12N7]
  Absolute mRNA transfection efficiency in HEK293 cells: 1.5%

## CCCCCCCCCCCCNc1nc(NCCN2CCOCC2)nc(SCCCCCCCCC)n1 [Compound D2S9N12]
  Absolute mRNA transfection efficiency in HEK293 cells: 15.2%

## CCCCCCCCCCCCCCCCCCNc1nc(NCCN2CCCC2)nc(SCCCCCCCCCCCC)n1 [Compound D3S12N18]
  Absolute mRNA transfection efficiency in HEK293 cells: 3.5%

## CCCCCCCCCSc1nc(NCCN2CCCCC2)nc(SCCCCCCC)n1 [Compound D4S7S9]
  Absolute mRNA transfection efficiency in HEK293 cells: 3.7%

## CCCCCCCCCCCCCCCCCCNc1nc(NCCN(C)C)nc(SCCCCCCCCCCCCCCCC)n1 [Compound D1S16N18]
  Absolute mRNA transfection efficiency in HEK293 cells: 0.5%
